In US10029992B2, “Diaminotriazine compounds and their use as herbicides” (BASF SE, priority 2014, dated 2018):

Tests used:
Test in all cases: Greenhouse experiment, pre-emergence treatment
Details in all cases: pre-emergence method
ABUTH = type: in vivo, Abutilon theophrasti
Text: (§1) The culture containers used were plastic flowerpots containing loamy sand with approximately 3.0% of humus as the substrate. The seeds of the test plants were sown separately for each species.
(§2) For the pre-emergence treatment, the active ingredients, which had been suspended or emulsified in water, were applied directly after sowing by means of finely distributing nozzles. The containers were irrigated gently to promote germination and growth and subsequently covered with transparent plastic hoods until the plants had rooted. This cover caused uniform germination of the test plants, unless this had been impaired by the active ingredients.
(§3) Depending on the species, the plants were kept at 10-25° C. or 20-35° C., respectively.
(§4) The test period extended over 2 to 4 weeks. During this time, the plants were tended, and their response to the individual treatments was evaluated.
(§5) Evaluation was carried out using a scale from 0 to 100. 100 means no emergence of the plants, or complete destruction of at least the aerial moieties, and 0 means no damage, or normal course of growth. A moderate herbicidal activity is given at values of at least 60, a good herbicidal activity is given at values of at least 70, and a very good herbicidal activity is given at values of at least 85.
(§6) The plants used in the greenhouse experiments were of the following species: […]

SETFA = type: in vivo, Setaria faberi
Text: (§7) The seeds of the test plants were sown separately for each species. For the pre-emergence treatment, the active ingredients, which had been suspended or emulsified in water, were applied directly after sowing by means of finely distributing nozzles. The containers were irrigated gently to promote germination and growth and subsequently covered with transparent plastic hoods until the plants had rooted. This cover caused uniform germination of the test plants, unless this had been impaired by the active ingredients. Depending on the species, the plants were kept at 10-25° C. or 20-35° C., respectively. The test period extended over 2 to 4 weeks. During this time, the plants were tended, and their response to the individual treatments was evaluated. Evaluation was carried out using a scale from 0 to 100. 100 means no emergence of the plants, or complete destruction of at least the aerial moieties, and 0 means no damage, or normal course of growth. A moderate herbicidal activity is given at values of at least 60, a good herbicidal activity is given at values of at least 70, and a very good herbicidal activity is given at values of at least 85. […] [table]

ECHCG = type: in vivo, Echinochloa crus-galli
Text: as §1, §2, §3, §4, §5, §6

AMARE = type: in vivo, Amaranthus retroflexus
Text: as §7

APESV = type: in vivo, Apera spica-venti
Text: as §1, §2, §3, §4, §5, §6

Cc1cc(C)cc(Sc2cccc(F)c2Nc2nc(N)nc(C(C)(C)F)n2)c1 [Example 2]
herbicidal activity against ABUTH (ABUTH; application rate 1000 g/ha): good (a good herbicidal activity is given at values of at least 70)

Cc1cc(C)cc(Oc2cccc(F)c2Nc2nc(N)nc(C(C)(C)F)n2)c1 [Example 5]
herbicidal activity against SETFA (SETFA; application rate 0.25 kg/ha): very good (a very good herbicidal activity is given at values of at least 85) | herbicidal activity against ABUTH (ABUTH; application rate 0.25 kg/ha): very good (a very good herbicidal activity is given at values of at least 85) | herbicidal activity against ECHCG (ECHCG; application rate 0.25 kg/ha): very good (a very good herbicidal activity is given at values of at least 85)

Cc1cccc(Oc2cccc(F)c2Nc2nc(N)nc(C(C)(C)F)n2)c1 [Example 7]
herbicidal activity against ABUTH (ABUTH; application rate 0.5 kg/ha): good to very good | herbicidal activity against AMARE (AMARE; application rate 0.5 kg/ha): good to very good | herbicidal activity against ECHCG (ECHCG; application rate 0.5 kg/ha): good to very good

Cc1cc(C)cc(Oc2cccc(F)c2Nc2nc(N)nc(C(C)F)n2)c1 (stereo not shown) [Example 11]
herbicidal activity against SETFA (SETFA; application rate 0.125 kg/ha): very good (a very good herbicidal activity is given at values of at least 85) | herbicidal activity against ABUTH (ABUTH; application rate 0.125 kg/ha): very good (a very good herbicidal activity is given at values of at least 85) | herbicidal activity against ECHCG (ECHCG; application rate 0.125 kg/ha): very good (a very good herbicidal activity is given at values of at least 85)

CC(C)(F)c1nc(N)nc(Nc2c(F)cccc2Oc2cc(C(F)(F)F)cc(C(F)(F)F)c2)n1 [Example 12]
herbicidal activity against SETFA (SETFA; application rate 0.25 kg/ha): very good (a very good herbicidal activity is given at values of at least 85) | herbicidal activity against AMARE (AMARE; application rate 0.25 kg/ha): very good (a very good herbicidal activity is given at values of at least 85) | herbicidal activity against APESV (APESV; application rate 0.25 kg/ha): very good (a very good herbicidal activity is given at values of at least 85)

CC(C)(F)c1nc(N)nc(Nc2c(F)cccc2Oc2cc(Cl)cc(Cl)c2)n1 [Example 13]
herbicidal activity against SETFA (SETFA; application rate 0.25 kg/ha): very good (a very good herbicidal activity is given at values of at least 85) | herbicidal activity against AMARE (AMARE; application rate 0.25 kg/ha): very good (a very good herbicidal activity is given at values of at least 85) | herbicidal activity against APESV (APESV; application rate 0.25 kg/ha): very good (a very good herbicidal activity is given at values of at least 85)

Cc1cc(C)cc(Oc2cccc(F)c2Nc2nc(N)nc(C3CCCCC3)n2)c1 [Example 15]
herbicidal activity against ABUTH (ABUTH; application rate 1000 g/ha): very good (a very good herbicidal activity is given at values of at least 85)

CC(C)(F)c1nc(N)nc(Nc2c(F)cccc2Oc2cc(F)cc(F)c2)n1 [Example 24]
herbicidal activity against ABUTH (ABUTH; application rate 0.25 kg/ha): very good (a very good herbicidal activity is given at values of at least 85) | herbicidal activity against ECHCG (ECHCG; application rate 0.25 kg/ha): very good (a very good herbicidal activity is given at values of at least 85) | herbicidal activity against APESV (APESV; application rate 0.25 kg/ha): very good (a very good herbicidal activity is given at values of at least 85)

Cc1cc(Cl)cc(Oc2cccc(F)c2Nc2nc(N)nc(C(C)(C)F)n2)c1 [Example 28]
herbicidal activity against SETFA (SETFA; application rate 0.25 kg/ha): very good (a very good herbicidal activity is given at values of at least 85) | herbicidal activity against ABUTH (ABUTH; application rate 0.25 kg/ha): very good (a very good herbicidal activity is given at values of at least 85) | herbicidal activity against APESV (APESV; application rate 0.25 kg/ha): very good (a very good herbicidal activity is given at values of at least 85)

COC(C)c1nc(N)nc(Nc2c(F)cccc2Oc2cc(C)cc(C)c2)n1 (stereo not shown) [Example 39]
herbicidal activity against ABUTH (ABUTH; application rate 1000 g/ha): very good (a very good herbicidal activity is given at values of at least 85) | herbicidal activity against APESV (APESV; application rate 1000 g/ha): very good (a very good herbicidal activity is given at values of at least 85)

CC(C)(F)c1nc(N)nc(Nc2c(F)c(F)cc(Oc3ccccc3)c2F)n1 [Example 42]
herbicidal activity against ABUTH (ABUTH; application rate 0.5 kg/ha): good to very good | herbicidal activity against AMARE (AMARE; application rate 0.5 kg/ha): good to very good | herbicidal activity against ECHCG (ECHCG; application rate 0.5 kg/ha): good to very good

Cc1cc(C)cc(Oc2cc(F)c(F)c(Nc3nc(N)nc(C(C)(C)F)n3)c2F)c1 [Example 43]
herbicidal activity against SETFA (SETFA; application rate 0.5 kg/ha): good to very good | herbicidal activity against ABUTH (ABUTH; application rate 0.5 kg/ha): good to very good | herbicidal activity against AMARE (AMARE; application rate 0.5 kg/ha): good to very good

Cc1cc(OCC(F)(F)F)cc(Oc2cccc(F)c2Nc2nc(N)nc(C(C)(C)F)n2)c1 [Example 81]
herbicidal activity against SETFA (SETFA; application rate 125 g/ha): very good (a very good herbicidal activity is given at values of at least 85) | herbicidal activity against ABUTH (ABUTH; application rate 125 g/ha): good (a good herbicidal activity is given at values of at least 70) | herbicidal activity against AMARA (AMARE; application rate 125 g/ha): very good (a very good herbicidal activity is given at values of at least 85)

Cc1cc(OCC2CCC2)cc(Oc2cccc(F)c2Nc2nc(N)nc(C(C)(C)F)n2)c1 [Example 83]
herbicidal activity against AMARA (AMARE; application rate 250 g/ha): very good (a very good herbicidal activity is given at values of at least 85) | herbicidal activity against ECHCG (ECHCG; application rate 250 g/ha): good (a good herbicidal activity is given at values of at least 70) | herbicidal activity against APESV (APESV; application rate 250 g/ha): good (a good herbicidal activity is given at values of at least 70)

CC(C)c1cccc(Oc2cccc(F)c2Nc2nc(N)nc(C(C)(C)F)n2)c1 [Example 89]
herbicidal activity against ABUTH (ABUTH; application rate 500 g/ha): very good (a very good herbicidal activity is given at values of at least 85) | herbicidal activity against ECHCG (ECHCG; application rate 500 g/ha): very good (a very good herbicidal activity is given at values of at least 85) | herbicidal activity against APESV (APESV; application rate 500 g/ha): very good (a very good herbicidal activity is given at values of at least 85)

CCc1cccc(Oc2cccc(F)c2Nc2nc(N)nc(C(C)(C)F)n2)c1 [Example 90]
herbicidal activity against AMARE (AMARE; application rate 500 g/ha): very good (a very good herbicidal activity is given at values of at least 85) | herbicidal activity against ECHCG (ECHCG; application rate 500 g/ha): very good (a very good herbicidal activity is given at values of at least 85) | herbicidal activity against APESV (APESV; application rate 500 g/ha): very good (a very good herbicidal activity is given at values of at least 85)

Cc1cc(C)cc(Oc2cccc(F)c2Nc2nc(N)nc(C3(F)CCCC3)n2)c1 [Example 96]
herbicidal activity against SETFA (SETFA; application rate 500 g/ha): very good (a very good herbicidal activity is given at values of at least 85) | herbicidal activity against ABUTH (ABUTH; application rate 500 g/ha): very good (a very good herbicidal activity is given at values of at least 85) | herbicidal activity against ECHCG (ECHCG; application rate 500 g/ha): very good (a very good herbicidal activity is given at values of at least 85)

CC(C)(F)c1nc(N)nc(Nc2c(F)cccc2Oc2cccc(OC(F)(F)F)c2)n1 [Example 97]
herbicidal activity against SETFA (SETFA; application rate 500 g/ha): very good (a very good herbicidal activity is given at values of at least 85) | herbicidal activity against ABUTH (ABUTH; application rate 500 g/ha): very good (a very good herbicidal activity is given at values of at least 85) | herbicidal activity against ECHCG (ECHCG; application rate 500 g/ha): very good (a very good herbicidal activity is given at values of at least 85)

Cc1cc(C)cc(Oc2cccc(C#N)c2Nc2nc(N)nc(C(C)(C)F)n2)c1 [Example 100]
herbicidal activity against ABUTH (ABUTH; application rate 250 g/ha): good (a good herbicidal activity is given at values of at least 70) | herbicidal activity against ECHCG (ECHCG; application rate 250 g/ha): very good (a very good herbicidal activity is given at values of at least 85) | herbicidal activity against APESV (APESV; application rate 250 g/ha): very good (a very good herbicidal activity is given at values of at least 85)
